Results published in PubChem BioAssay (NCI).
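Following 48 hours of exposure in 96-well plates, responses at five concentrations were used to interpolate endpoints linearly. GI50 = concentration required for 50% inhibition of growth. TGI marks complete inhibition of growth.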

Legend:
Assay in all cases: NCI anticancer screen, dose series, 48 h
MDA-MB-231 breast = system: MDA-MB-231 breast
CCRF-CEM leukemia = system: CCRF-CEM leukemia
SNB-19 CNS = system: SNB-19 CNS
LOX IMVI melanoma = system: LOX IMVI melanoma
HT29 colon = system: HT29 colon
CAKI-1 renal = system: CAKI-1 renal
MDA-MB-435 = system: MDA-MB-435
HCC-2998 colon = system: HCC-2998 colon
SK-MEL-28 melanoma = system: SK-MEL-28 melanoma
PC-3 prostate = system: PC-3 prostate
OVCAR-5 ovarian = system: OVCAR-5 ovarian
EKVX NSCLC = system: EKVX NSCLC
SR leukemia = system: SR leukemia
T-47D breast = system: T-47D breast
HOP-92 NSCLC = system: HOP-92 NSCLC
COLO 205 colon = system: COLO 205 colon
SW-620 colon = system: SW-620 colon
RPMI-8226 leukemia = system: RPMI-8226 leukemia
786-0 renal = system: 786-0 renal
SK-MEL-2 melanoma = system: SK-MEL-2 melanoma
IGROV1 ovarian = system: IGROV1 ovarian
HL-60(TB) leukemia = system: HL-60(TB) leukemia
NCI-H460 lung = system: NCI-H460 lung
SF-295 CNS = system: SF-295 CNS
NCI/ADR-RES ovarian = system: NCI/ADR-RES ovarian
SF-268 CNS = system: SF-268 CNS
K-562 leukemia = system: K-562 leukemia
ACHN renal = system: ACHN renal
SF-539 CNS = system: SF-539 CNS
MDA-MB-468 breast = system: MDA-MB-468 breast
UACC-62 melanoma = system: UACC-62 melanoma
HCT-15 colon = system: HCT-15 colon
MCF7 breast = system: MCF7 breast
OVCAR-8 ovarian = system: OVCAR-8 ovarian
HOP-62 NSCLC = system: HOP-62 NSCLC
MOLT-4 leukemia = system: MOLT-4 leukemia
SNB-75 CNS = system: SNB-75 CNS
MALME-3M melanoma = system: MALME-3M melanoma
HS 578T breast = system: HS 578T breast
NCI-H226 lung = system: NCI-H226 lung
SK-MEL-5 melanoma = system: SK-MEL-5 melanoma
UACC-257 melanoma = system: UACC-257 melanoma
RXF 393 renal = system: RXF 393 renal
HCT-116 colon = system: HCT-116 colon
SN12C renal = system: SN12C renal
UO-31 renal = system: UO-31 renal
NCI-H522 lung = system: NCI-H522 lung
SK-OV-3 ovarian = system: SK-OV-3 ovarian
A498 renal = system: A498 renal
DU-145 prostate = system: DU-145 prostate
NCI-H23 lung = system: NCI-H23 lung
TK-10 renal = system: TK-10 renal
KM12 colon = system: KM12 colon
U251 CNS = system: U251 CNS
BT-549 breast = system: BT-549 breast
OVCAR-3 ovarian = system: OVCAR-3 ovarian
OVCAR-4 ovarian = system: OVCAR-4 ovarian
M14 melanoma = system: M14 melanoma
A549 NSCLC = system: A549 NSCLC

Structure (SMILES): O=C1Nc2cc(-c3ccc(NS(=O)(=O)c4ccc(-c5ccccc5)cc4)cc3)ccc2/C1=C/c1ccc[nH]1
- GI50 (MDA-MB-231 breast): 2960 nM
- TGI (MDA-MB-231 breast): 11.6 µM
- GI50 (CCRF-CEM leukemia): 5.82 µM
- TGI (CCRF-CEM leukemia): 18.6 µM
- GI50 (SNB-19 CNS): 5.91 µM
- TGI (SNB-19 CNS): 18.7 µM
- GI50 (LOX IMVI melanoma): 2590 nM
- TGI (LOX IMVI melanoma): 6.82 µM
- GI50 (HT29 colon): 2420 nM
- TGI (HT29 colon): 6.71 µM
- GI50 (CAKI-1 renal): 5.64 µM
- TGI (CAKI-1 renal): 18.4 µM
- GI50 (MDA-MB-435): 5.71 µM
- TGI (MDA-MB-435): 21 µM
- GI50 (HCC-2998 colon): 4.88 µM
- TGI (HCC-2998 colon): 28.4 µM
- GI50 (SK-MEL-28 melanoma): 3.77 µM
- TGI (SK-MEL-28 melanoma): 13.5 µM
- GI50 (PC-3 prostate): 3.27 µM
- TGI (PC-3 prostate): 18.1 µM
- GI50 (OVCAR-5 ovarian): 3.42 µM
- TGI (OVCAR-5 ovarian): 14.3 µM
- GI50 (EKVX NSCLC): 225 nM
- TGI (EKVX NSCLC): 8.94 µM
- GI50 (SR leukemia): 1900 nM
- TGI (SR leukemia): 10.9 µM
- GI50 (T-47D breast): 136 nM
- TGI (T-47D breast): 3.57 µM
- GI50 (HOP-92 NSCLC): 2200 nM
- TGI (HOP-92 NSCLC): 7.22 µM
- GI50 (COLO 205 colon): 3.7 µM
- TGI (COLO 205 colon): 14 µM
- GI50 (SW-620 colon): 2450 nM
- TGI (SW-620 colon): 6.56 µM
- GI50 (RPMI-8226 leukemia): 3.09 µM
- TGI (RPMI-8226 leukemia): 15.7 µM
- GI50 (786-0 renal): 3.91 µM
- TGI (786-0 renal): 13.9 µM
- GI50 (SK-MEL-2 melanoma): 11.8 µM
- TGI (SK-MEL-2 melanoma): 24.4 µM
- GI50 (IGROV1 ovarian): 8.34 µM
- TGI (IGROV1 ovarian): 22.2 µM
- GI50 (HL-60(TB) leukemia): 7.67 µM
- TGI (HL-60(TB) leukemia): 31.7 µM
- GI50 (NCI-H460 lung): 351 nM
- TGI (NCI-H460 lung): 2130 nM
- GI50 (SF-295 CNS): 7.29 µM
- TGI (SF-295 CNS): 19.8 µM
- GI50 (NCI/ADR-RES ovarian): 6.29 µM
- TGI (NCI/ADR-RES ovarian): 30.9 µM
- GI50 (SF-268 CNS): 4.26 µM
- TGI (SF-268 CNS): 16.3 µM
- GI50 (K-562 leukemia): 3.8 µM
- TGI (K-562 leukemia): 16.6 µM
- GI50 (ACHN renal): 6.16 µM
- TGI (ACHN renal): 18.7 µM
- GI50 (SF-539 CNS): 3.66 µM
- TGI (SF-539 CNS): 14.7 µM
- GI50 (MDA-MB-468 breast): 40.2 nM
- TGI (MDA-MB-468 breast): 1040 nM
- GI50 (UACC-62 melanoma): 5.37 µM
- TGI (UACC-62 melanoma): 19.7 µM
- GI50 (HCT-15 colon): 2260 nM
- TGI (HCT-15 colon): 7.86 µM
- GI50 (MCF7 breast): 74.6 nM
- TGI (MCF7 breast): 1540 nM
- GI50 (OVCAR-8 ovarian): 3.45 µM
- TGI (OVCAR-8 ovarian): 12.2 µM
- GI50 (HOP-62 NSCLC): 8.59 µM
- TGI (HOP-62 NSCLC): 21.8 µM
- GI50 (MOLT-4 leukemia): 3.88 µM
- TGI (MOLT-4 leukemia): 17.7 µM
- GI50 (SNB-75 CNS): 12.8 µM
- TGI (SNB-75 CNS): 35.6 µM
- GI50 (MALME-3M melanoma): 2790 nM
- TGI (MALME-3M melanoma): 9.7 µM
- GI50 (HS 578T breast): 12.2 µM
- TGI (HS 578T breast): 56.7 µM
- GI50 (NCI-H226 lung): 1900 nM
- TGI (NCI-H226 lung): 14.8 µM
- GI50 (SK-MEL-5 melanoma): 6.91 µM
- TGI (SK-MEL-5 melanoma): 21.8 µM
- GI50 (UACC-257 melanoma): 5.84 µM
- TGI (UACC-257 melanoma): 20.4 µM
- GI50 (RXF 393 renal): 2480 nM
- TGI (RXF 393 renal): 5.56 µM
- GI50 (HCT-116 colon): 3.28 µM
- TGI (HCT-116 colon): 11.2 µM
- GI50 (SN12C renal): 3.07 µM
- TGI (SN12C renal): 12 µM
- GI50 (UO-31 renal): 10.7 µM
- TGI (UO-31 renal): 29.1 µM
- GI50 (NCI-H522 lung): 2270 nM
- TGI (NCI-H522 lung): 7.94 µM
- GI50 (SK-OV-3 ovarian): 13.3 µM
- TGI (SK-OV-3 ovarian): 26 µM
- GI50 (A498 renal): 12.6 µM
- TGI (A498 renal): 25.1 µM
- GI50 (DU-145 prostate): 2090 nM
- TGI (DU-145 prostate): 4.59 µM
- GI50 (NCI-H23 lung): 1200 nM
- TGI (NCI-H23 lung): 5.91 µM
- GI50 (TK-10 renal): 2660 nM
- TGI (TK-10 renal): 11 µM
- GI50 (KM12 colon): 2480 nM
- TGI (KM12 colon): 18.7 µM
- GI50 (U251 CNS): 2180 nM
- TGI (U251 CNS): 5.73 µM
- GI50 (BT-549 breast): 2490 nM
- TGI (BT-549 breast): 7.75 µM
- GI50 (OVCAR-3 ovarian): 1940 nM
- TGI (OVCAR-3 ovarian): 4.65 µM
- GI50 (OVCAR-4 ovarian): 2100 nM
- TGI (OVCAR-4 ovarian): 11.9 µM
- GI50 (M14 melanoma): 4.7 µM
- TGI (M14 melanoma): 16.8 µM
- GI50 (A549 NSCLC): 1820 nM
- TGI (A549 NSCLC): 4.86 µM
